Source: paper PMC3845904 (Chemical research in toxicology, 2009)
Where “and” joins values, the source holds several entries; their conditions need not be identical. Equal values may be shown once. Read-outs that look alike come from different tables or passages of the source.

Assays:
[1] = biological target: T1, human P450 1B1 (Homo sapiens, UniProt Q16678); test: Spectral binding titration; settings: for Reverse Type I spectra ΔAmax/Ks (magnitude of spectral binding) / Reverse Type I spectra ΔAmax: purified P450 1B1 1.0 μM, ND = not detected at 100 μM; for Reverse Type I spectra ΔAmax: means ± SEs
T1 sequence (Q16678 1-543): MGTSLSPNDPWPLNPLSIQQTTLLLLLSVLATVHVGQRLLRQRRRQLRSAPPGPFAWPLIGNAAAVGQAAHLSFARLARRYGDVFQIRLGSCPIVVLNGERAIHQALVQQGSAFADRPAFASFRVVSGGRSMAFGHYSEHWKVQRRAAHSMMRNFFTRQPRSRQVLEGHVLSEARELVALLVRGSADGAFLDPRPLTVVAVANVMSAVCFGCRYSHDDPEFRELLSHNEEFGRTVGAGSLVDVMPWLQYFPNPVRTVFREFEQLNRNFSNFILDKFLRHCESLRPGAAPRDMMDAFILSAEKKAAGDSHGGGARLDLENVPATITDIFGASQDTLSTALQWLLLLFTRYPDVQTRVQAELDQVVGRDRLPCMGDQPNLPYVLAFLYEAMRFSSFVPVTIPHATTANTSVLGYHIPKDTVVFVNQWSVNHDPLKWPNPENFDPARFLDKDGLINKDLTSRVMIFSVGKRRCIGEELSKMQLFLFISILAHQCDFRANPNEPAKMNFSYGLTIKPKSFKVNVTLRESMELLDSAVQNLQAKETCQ

[2] = biological target: T1, human P450 1B1; test: biochemical
[3] = biological target: T1, human P450 1B1; test: Inhibition of 7-ethoxyresorufin O-deethylation; settings: results not presented
[4] = biological target: T1, human P450 1B1; settings: pH 7.4
[5] = biological target: T1, human P450 1B1
[6] = biological target: P450 1A2 (Homo sapiens, UniProt P05177); test: Inhibition of EROD activity catalyzed by P450 1A2; assay type: biochemical; settings: Figure 4
P450 1A2, sequence (P05177 whole entry): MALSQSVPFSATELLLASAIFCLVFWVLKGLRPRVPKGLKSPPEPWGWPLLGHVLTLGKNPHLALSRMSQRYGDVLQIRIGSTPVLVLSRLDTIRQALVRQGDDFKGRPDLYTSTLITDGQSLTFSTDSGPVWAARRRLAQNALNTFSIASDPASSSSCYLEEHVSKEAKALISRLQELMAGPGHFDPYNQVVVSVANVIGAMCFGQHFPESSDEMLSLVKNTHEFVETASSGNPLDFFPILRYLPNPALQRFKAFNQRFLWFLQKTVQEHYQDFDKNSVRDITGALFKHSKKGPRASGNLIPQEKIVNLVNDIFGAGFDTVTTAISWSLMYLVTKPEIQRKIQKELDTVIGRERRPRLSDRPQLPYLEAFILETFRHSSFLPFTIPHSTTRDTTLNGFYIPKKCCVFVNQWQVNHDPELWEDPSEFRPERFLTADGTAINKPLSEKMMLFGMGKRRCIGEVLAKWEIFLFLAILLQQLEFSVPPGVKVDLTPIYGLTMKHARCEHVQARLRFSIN

manner of inhibition of P450 1B1 EROD activity [3] | Kd [4] | IC50 [5] | Kd [1] | inhibition of P450 1A2 EROD (in words) [6] | SMILES | Reverse Type I spectra ΔAmax/Ks (magnitude of spectral binding) [1] | Reverse Type I spectra ΔAmax [1] | IC50 [2]
mechanism-based manner | – | – | – | – | CC#Cc1ccc(-c2ccccc2)cc1 [4PB, 4-(1-propynyl)biphenyl] | 0.0062 | 0.074 ± 0.008 | 1800 ± 200 nM
– | – | – | 66000 ± 11000 nM | – | COc1ccc(-c2cc(=O)c3ccccc3o2)cc1 [4MF, 4′-methoxyflavone] | – | – | 230 ± 30 nM
– | – | – | 51000 ± 4100 nM | – | COc1cccc(-c2cc(=O)c3ccccc3o2)c1 [3MF, 3′-methoxyflavone] | 0.0006 | 0.029 ± 0.001 | 150 ± 20 nM

The next lines start with the compound.

SMILES | manner of inhibition of P450 1B1 EROD activity [3] | Kd [4] | IC50 [5] | Kd [1] | inhibition of P450 1A2 EROD (in words) [6] | Reverse Type I spectra ΔAmax/Ks (magnitude of spectral binding) [1] | Reverse Type I spectra ΔAmax [1] | IC50 [2]
CCC#Cc1ccc(-c2ccccc2)cc1 [4BuB, 4-butinylbiphenyl] | – | 54000 ± 6200 nM | 1500 ± 300 nM | – | – | – | – | –
c1ccc(-c2ccccc2)cc1 [biphenyl, reference compound] | – | – | – | 140000 ± 19000 nM | – | 0.0003 | 0.037 ± 0.008 | 19000 ± 2300 nM
Oc1ccc(/C=C/c2cc(O)cc(O)c2)cc1 [resveratrol (Res), resveratrol, reference compound] | – | – | – | 28000 ± 3300 nM | – | 0.0012 | 0.034 ± 0.004 | 1200 ± 200 nM
c1ccc2c(c1)ccc1ccccc12 [Phenanthrene, phenanthrene, reference compound] | – | – | – | 14000 ± 1700 nM | – | 0.0031 | 0.044 ± 0.002 | 510 ± 100 nM
C#Cc1ccc2ccc3ccccc3c2c1 [3EPh, 3-ethynylphenanthrene] | – | – | – | – | – | 0.0237 | 0.071 ± 0.001 | 160 ± 20 nM
c1ccc2ccccc2c1 [naphthalene, reference compound] | – | – | – | – | weak | – | – | ~26000 nM and 26000 nM
CC#Cc1cc2ccccc2c2ccccc12 [9PPh, 9-(1-propynyl)phenanthrene] | – | – | – | – | – | 0.0153 | 0.049 ± 0.002 | 160 ± 30 nM
CC#Cc1ccc2ccc3ccccc3c2c1 [3PPh, 3-(1-propynyl)phenanthrene] | – | – | – | – | – | 0.0194 | 0.060 ± 0.006 | 67 ± 8 nM
COc1cccc(-c2cc(=O)c3ccc(O)c(O)c3o2)c1 [3M78DHF, 3′-methoxy-7,8-dihydroxyflavone] | – | – | – | 140000 ± 15000 nM | – | 0.0003 | 0.044 ± 0.005 | 3700 ± 500 nM
CC#Cc1ccc2c(ccc3ccccc32)c1 [2PPh, 2-(1-propynyl)phenanthrene] | – | – | – | – | – | 0.0305 | 0.067 ± 0.005 | 150 ± 20 nM
C#Cc1ccc2ccc3cccc4ccc1c2c34 [1EP, 1-ethynylpyrene] | – | – | – | – | – | 0.0169 | 0.049 ± 0.005 | 36 ± 5 nM
C#Cc1ccc(-c2ccccc2)cc1 [4EB, 4-ethynylbiphenyl] | – | – | – | – | – | 0.0030 | 0.023 ± 0.001 | 2200 ± 300 nM
